Experimental data taken from patent US20130302442A1, “METHODS OF USING (4S,4AS,5AR,12AS)-4-DIMETHYLAMINO-3,10,12,12A-TETRAHYDROXY-7-[(METHOXY(METHYL)AMINO)-METHYL]-1,11-DIOXO-1,4,4A,5,5A,6,11,12A-OCTAHYDRO-NAPHTHACENE-2-CARBOXYLIC ACID AMIDE” (priority 2012, published 2013).
In brackets after ≈: the same amount, converted by molar mass. Like-named read-outs stand apart in the source and are kept apart here.

Legend:
Assay type in all cases: cell-based
[1] = test system: E. faecalis; assay: In vitro MIC testing, antibacterial spectrum of activity; conditions: E. faecalis [VSE] (31 isolates)
[2] = test system: Salmonella Spp.; assay: as above; conditions: Salmonella
[3] = test system: P. aeruginosa; assay: as above; conditions: P. aeruginosa (11 isolates); for MIC50 / MIC90: Pseudomonas aeruginosa
[4] = test system: P. mirabilis; assay: as above; conditions: Proteus mirabilis; P. mirabilis (30 isolates)
[5] = test system: E. faecium; assay: as above; conditions: Enterococcus faecium; for MIC50: read-out: MIC50; for MIC90: read-out: MIC90
[6] = test system: K. pneumoniae; assay: as above; conditions: K. pneumoniae (31 isolates); for MIC50 / MIC90: Klebsiella pneumoniae
[7] = test system: E. cloacae; assay: as above; conditions: Enterobacter cloacae; E. cloacae (30 isolates)
[8] = test system: E. coli; assay: as above; conditions: Escherichia coli
[9] = test system: Chlamydia trachomatis; assay: In vitro susceptibility testing of Chlamydia trachomatis in HEp-2 cells (first study); conditions: Chlamydia trachomatis, C. trachomatis strains, read-out: MIC at which 90% of the strains were inhibited (MIC90)
[10] = test system: Chlamydia trachomatis; assay: Susceptibility testing (MIC, MBC) of 10 isolates of C. trachomatis in HEp-2 cells
[11] = test system: Chlamydia pneumoniae; assay: Susceptibility testing (MIC, MBC) of 10 isolates of C. pneumoniae in HEp-2 cells

SMILES	MIC50 [2] [µg/mL]	MIC90 [2] [µg/mL]	MIC Range [3] [µg/mL]	MIC50 [3] [µg/mL]	MIC90 [3] [µg/mL]	MIC50 [4] [µg/mL]	MIC90 [4] [µg/mL]	MIC Range [6] [µg/mL]	MIC50 [6] [µg/mL]	MIC90 [6] [µg/mL]	MIC50 [7] [µg/mL]	MIC90 [7] [µg/mL]	MIC90 [8] [µg/mL]	further results
CC1(C)S[C@@H]2[C@H](NC(=O)[C@H](N)c3ccccc3)C(=O)N2[C@H]1C(=O)O [Ampicillin]	1 (≈ 2.86 µM)	> 64	>64	> 64	> 64	4 (≈ 11.4 µM)	> 64	>64	> 64	> 64	64 (≈ 183 µM)	> 64	> 64	MIC Range [1]: 0.5 to 8 µg/mL; MIC50 ([1]; Enterococcus faecalis, read-out: MIC50): 1 µg/mL (≈ 2.86 µM); MIC90 ([1]; Enterococcus faecalis, read-out: MIC90): 1 µg/mL (≈ 2.86 µM); MIC50 ([5]; E. faecium [VRE] (30 isolates)): > 64 µg/mL; MIC90 ([5]; E. faecium [VRE] (30 isolates)): > 64 µg/mL; MIC50 ([5]; E. faecium [VSE] (32 isolates)): 64 µg/mL (≈ 183 µM); MIC90 ([5]; E. faecium [VSE] (32 isolates)): > 64 µg/mL; MIC50 [8]: > 64 µg/mL
CC[C@H]1OC(=O)[C@H](C)[C@@H](O[C@H]2C[C@@](C)(OC)[C@@H](O)[C@H](C)O2)[C@H](C)[C@@H](O[C@@H]2O[C@H](C)C[C@H](N(C)C)[C@H]2O)[C@](C)(O)C[C@@H](C)CN(C)[C@H](C)[C@@H](O)[C@]1(C)O [Azithromycin]	–	–	–	–	–	–	–	–	–	–	–	–	–	MIC90 [9]: 0.015 µg/mL (≈ 0.02 µM); MIC Range ([10]; 72 h): 0.003 to 0.03 µg/mL; MIC50 ([10]; Chlamydia trachomatis, 72 h): 0.0075 µg/mL (≈ 0.01 µM); MIC90 ([10]; Chlamydia trachomatis, 72 h): 0.015 µg/mL (≈ 0.02 µM); MBC ([10]; Chlamydia trachomatis, after passage, read-out: MBC 90%): 0.015 µg/mL (≈ 0.02 µM); MBC Range ([10]; after passage): 0.007 to 0.03 µg/mL; MIC Range ([11]; 72 h): 0.03 to 0.0625 µg/mL; MIC50 ([11]; Chlamydia pneumoniae, 72 h): 0.0625 µg/mL (≈ 0.0834 µM); MIC90 ([11]; Chlamydia pneumoniae, 72 h): 0.0625 µg/mL (≈ 0.0834 µM); MBC ([11]; Chlamydia pneumoniae, after passage, read-out: MBC 90%): 0.25 µg/mL (≈ 0.334 µM); MBC 90% ([11]; after passage): 0.25 µg/mL (≈ 0.334 µM); MBC Range ([11]; after passage): 0.0625 to 0.25 µg/mL
CC(=O)OCC1=C(C(=O)O)N2C(=O)[C@@H](NC(=O)Cc3cccs3)[C@H]2SC1 [Cephalothin]	2 (≈ 5.04 µM)	16 (≈ 40.4 µM)	>64	> 64	> 64	8 (≈ 20.2 µM)	> 64	>64	> 64	> 64	> 64	> 64	> 64	–
